Test results reported in patent US11192869B2, “CFTR regulators and methods of use thereof” (THE REGENTS OF THE UNIVERSITY OF CALIFORNIA, priority 2015, dated 2021).
Entries after “also recorded” stand apart in the source; their conditions may differ.

Assays:
[1] = tested on: mid-jejunal loops of cystic fibrosis mice; assay: In vivo intestinal fluid absorption, closed mid-jejunal loops of CF mice; parameters: species or system mouse; settings: 30 min
Description: In vivo intestinal secretion and absorption. Mice (wildtype or CF) were given access to 5% dextrose water but not solid food for 24 h before experiments. Mice were anesthetized with isoflurane and body temperature was maintained during surgery at 36-38° C. using a heating pad. A small abdominal incision was made to expose the small intestine, and closed mid-jejunal loops (length 2-3 cm) were isolated by sutures. Loops were injected with 100 μL vehicle alone or […] CFTRact-J027 in vehicle. The abdominal incision was closed with sutures, and mice were allowed to recover from anesthesia. Intestinal loops were removed at 90 min and loop length and weight were measured to quantify fluid secretion. Intestinal absorption was measured in CF mice (to prevent secretion) as described above, except that the loops were removed at 0 or 30 min. Absorption was calculated as 1-(loop weight at 0 min−loop weight at 30 min)/loop weight at 0 min.
In vivo intestinal secretion and absorption. […] Intestinal loops were removed at 90 min and loop length and weight were measured to quantify fluid secretion. Intestinal absorption was measured in CF mice (to prevent secretion) as described above, except that the loops were removed at 0 or 30 min. Absorption was calculated as 1-(loop weight at 0 min−loop weight at 30 min)/loop weight at 0 min.

[2] = In vitro metabolic stability; assay type: in vitro ADME, mouse
Description: In vitro metabolic stability. CFTRact-J027 (5 μM) was incubated for specified times at 37° C. with mouse liver microsomes (1 mg protein/ml; Sigma-Aldrich) in potassium phosphate buffer (100 mM) containing 1 mM NADPH, as described. The mixture was then chilled on ice, and 0.5 ml of ice-cold ethyl acetate was added. Samples were centrifuged for 15 min at 3000 rpm, the supernatant evaporated to dryness, and the residue was dissolved in 100 μL mobile phase (acetonitrile:water, 3:1) for LC/MS and assayed as described above.

[3] = Pharmacokinetics after ip or oral administration; assay type: in vivo, mouse
Description: Pharmacokinetics. All animal experiments were approved by UCSF Institutional Animal Care and Use Committee. Female CD1 mice were treated with 10 mg/kg CFTRact-J027 (saline containing 5% DMSO and 10% Kolliphor HS 15) either intraperitoneally (ip) or orally. Blood was collected at 15, 30, 60, 150, 240 and 360 min after treatment by orbital puncture and centrifuged at 5000 rpm for 15 min to separate plasma. Plasma samples (60 μL) were mixed with 300 μL acetonitrile and centrifuged at 13000 rpm for 20 min, and 90 μL of the supernatant was used for LC/MS. The solvent system consisted of a linear gradient from 5 to 95% acetonitrile over 16 min (0.2 ml/min flow). Mass spectra was acquired on a mass spectrometer (Waters 2695 and Micromass ZQ) using electrospray (+) ionization, mass ranging from 100 to 1500 Da, cone voltage 40 V. Calibration standards were prepared in plasma from untreated mice to which known amounts of CFTRact-J027 were added.

## Nc1ccc([N+](=O)[O-])cc1-c1nc2ccccc2n(Cc2ccccc2)c1=O [CFTRact-J027, 3-(2-amino-5-nitrophenyl)-1-benzylquinoxalin-2(1H)-one]
[1]
  intestinal fluid absorption: did not affect
[2]; 60 min
  original compound remaining: 7%
[2]; liver microsomes
  hepatic/microsomal metabolism (in words): rapid in vitro metabolism; also recorded: rapid hepatic metabolism
[2]; mouse liver microsomes, NADPH, 5 μM
  elimination half-life: ~21 min
[3]; 10 mg/kg ip
  elimination half-life of serum concentration: ~16 min
[3]; 10 mg/kg oral
  bioavailability (in words): very low bioavailability; also recorded: minimal bioavailability
  blood levels relative to EC50 for CFTR activation: well below the EC50
